Experimental data from paper PMC11031313 (Cell chemical biology, 2024).

What was measured:
[1] = molecular target: M-group HIV-1 Nef variants; assay: SPR binding to M-group HIV-1 Nef variants; conditions: HIV-1 Nef proteins
[2] = molecular target: SIV Nef mac239 (Simian immunodeficiency virus, UniProt Q5QGG3); assay: SPR binding to SIV Nef mac239
[3] = molecular target: HIV-1 Nef (SF2 variant) (Human immunodeficiency virus type 1 group M subtype B, UniProt P03407); assay type: cell-based; conditions: 293T cells, PROTAC 10 μM, 24 h
[4] = molecular target: Nef (NL4-3 variant) and CRBN thalidomide-binding domain (UniProt P03406+Q96SW2, A33V/T15A/T51N/V11I); assay: PROTAC-mediated ternary complex formation in vitro; conditions: 25 μM of each protein, 5-, 10- or 20-fold molar excess of PROTAC
Chain of Nef (NL4-3 variant) and CRBN thalidomide-binding domain (Q96SW2 317-425, other chains not shown): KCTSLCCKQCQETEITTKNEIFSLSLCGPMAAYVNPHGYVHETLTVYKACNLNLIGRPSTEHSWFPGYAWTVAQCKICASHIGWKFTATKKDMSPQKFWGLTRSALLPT

[5] = test system: Nef-mediated CD4 downregulation; assay: Rescue of cell-surface CD4 in Dox-induced CEM/Nef-eGFP T cells; assay type: cell-based, human; conditions: 3 μM, 24 h
[6] = test system: Nef-mediated MHC-I downregulation; assay: Rescue of cell-surface MHC-I in Dox-induced CEM/Nef-eGFP T cells; assay type: cell-based, human; conditions: 3 μM, 24 h
[7] = molecular target: Nef-eGFP fusion protein (UniProt P03406+Q96SW2); assay: Nef-eGFP protein loss in CEM/Nef-eGFP cells by flow cytometry; assay type: cell-based, HIV-1; conditions: 3 μM, 24 h
Chain of Nef-eGFP fusion protein (Q16531 whole entry, other chains not shown, the tested form may be a part): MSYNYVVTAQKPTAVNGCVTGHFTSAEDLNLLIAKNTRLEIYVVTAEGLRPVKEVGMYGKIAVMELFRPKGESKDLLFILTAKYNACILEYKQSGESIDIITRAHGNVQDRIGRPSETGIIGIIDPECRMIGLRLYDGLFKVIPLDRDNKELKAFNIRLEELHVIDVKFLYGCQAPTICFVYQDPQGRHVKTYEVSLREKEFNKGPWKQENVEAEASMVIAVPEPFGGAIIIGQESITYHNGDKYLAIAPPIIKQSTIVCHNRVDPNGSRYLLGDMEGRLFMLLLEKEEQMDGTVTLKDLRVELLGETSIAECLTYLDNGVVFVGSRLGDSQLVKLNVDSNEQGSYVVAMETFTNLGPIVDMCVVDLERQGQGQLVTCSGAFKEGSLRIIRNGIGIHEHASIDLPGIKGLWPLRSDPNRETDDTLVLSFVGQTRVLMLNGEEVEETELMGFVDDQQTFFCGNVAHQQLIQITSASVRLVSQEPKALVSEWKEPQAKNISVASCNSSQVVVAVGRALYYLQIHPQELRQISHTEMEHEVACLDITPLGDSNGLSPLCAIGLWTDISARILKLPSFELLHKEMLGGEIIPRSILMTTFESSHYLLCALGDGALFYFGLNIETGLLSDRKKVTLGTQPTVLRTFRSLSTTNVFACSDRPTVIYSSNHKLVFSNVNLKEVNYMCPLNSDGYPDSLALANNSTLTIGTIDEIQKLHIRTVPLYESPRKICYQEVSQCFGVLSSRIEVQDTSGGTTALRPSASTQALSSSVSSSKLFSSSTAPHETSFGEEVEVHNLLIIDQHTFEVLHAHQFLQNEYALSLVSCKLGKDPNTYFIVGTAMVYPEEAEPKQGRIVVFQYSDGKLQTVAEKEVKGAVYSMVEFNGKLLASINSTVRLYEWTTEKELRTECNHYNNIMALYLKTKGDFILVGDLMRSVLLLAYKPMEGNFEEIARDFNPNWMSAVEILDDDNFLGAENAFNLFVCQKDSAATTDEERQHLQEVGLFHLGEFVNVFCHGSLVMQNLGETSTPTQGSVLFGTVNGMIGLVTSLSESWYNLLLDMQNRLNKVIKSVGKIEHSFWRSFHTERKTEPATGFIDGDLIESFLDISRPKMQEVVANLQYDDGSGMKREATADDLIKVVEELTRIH
Chain of Nef-eGFP fusion protein (Q96SW2 whole entry, other chains not shown, the tested form may be a part): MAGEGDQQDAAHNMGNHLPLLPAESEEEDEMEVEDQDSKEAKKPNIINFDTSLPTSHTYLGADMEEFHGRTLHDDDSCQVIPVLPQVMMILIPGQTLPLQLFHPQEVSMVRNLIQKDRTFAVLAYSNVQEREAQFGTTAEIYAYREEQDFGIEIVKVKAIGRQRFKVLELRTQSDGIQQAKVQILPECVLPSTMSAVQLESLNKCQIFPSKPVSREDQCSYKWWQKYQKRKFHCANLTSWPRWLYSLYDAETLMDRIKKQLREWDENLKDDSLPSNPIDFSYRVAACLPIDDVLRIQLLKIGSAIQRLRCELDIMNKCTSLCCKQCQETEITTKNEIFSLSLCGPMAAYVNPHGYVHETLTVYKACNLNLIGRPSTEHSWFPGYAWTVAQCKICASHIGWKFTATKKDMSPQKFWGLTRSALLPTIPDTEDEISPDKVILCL

[8] = molecular target: HIV-1 Nef (NL4-3 variant) (Human immunodeficiency virus type 1, UniProt Q90VU7); assay: SPR binding to HIV-1 Nef; conditions: for binding kinetics with Nef (in words): SPR, 90 s association, 180 s dissociation
[9] = molecular target: thalidomide-binding domain of CRBN (Homo sapiens, UniProt Q96SW2); assay: SPR binding to CRBN thalidomide-binding domain; conditions: 90 s association, 180 s dissociation
Chain of thalidomide-binding domain of CRBN (Q96SW2 317-425): as the sequence (Q96SW2 317-425, other chains not shown) above

[10] = molecular target: IKZF1 (Ikaros) (Homo sapiens, UniProt Q13422); assay: IKZF1 protein level in CEM/Nef-eGFP T cells; assay type: cell-based; conditions: CEM/Nef-eGFP cells after Dox induction
Chain of IKZF1 (Ikaros) (Q13422 whole entry): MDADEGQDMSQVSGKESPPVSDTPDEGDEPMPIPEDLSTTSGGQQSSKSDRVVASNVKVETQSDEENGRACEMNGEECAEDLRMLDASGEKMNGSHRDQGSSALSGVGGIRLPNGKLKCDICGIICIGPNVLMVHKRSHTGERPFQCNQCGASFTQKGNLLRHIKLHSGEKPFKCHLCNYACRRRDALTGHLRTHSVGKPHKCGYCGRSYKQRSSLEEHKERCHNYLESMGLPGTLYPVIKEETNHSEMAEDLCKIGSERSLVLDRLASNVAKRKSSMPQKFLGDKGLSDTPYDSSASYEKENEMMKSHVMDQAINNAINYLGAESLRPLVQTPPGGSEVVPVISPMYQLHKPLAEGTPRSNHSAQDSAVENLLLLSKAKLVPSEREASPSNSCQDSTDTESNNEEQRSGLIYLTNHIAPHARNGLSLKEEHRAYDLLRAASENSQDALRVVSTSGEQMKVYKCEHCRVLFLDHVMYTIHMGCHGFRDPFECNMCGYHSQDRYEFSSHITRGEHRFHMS

[11] = test system: HIV-1NL4-3; assay: HIV-1 infectivity assay in TZM-bl reporter cells; assay type: cell-based; conditions: Human immunodeficiency virus 1, TZM-bl, 48 h, read-out: IC50, HIV-1 infectivity
[12] = test system: TZM-bl cells; assay: Viability of uninfected TZM-bl cells; assay type: cell-based, human
[13] = test system: HIV-1NL4-3; assay: HIV-1 replication in donor PBMCs; assay type: cell-based; conditions: 1 μM, 4 days
[14] = test system: uninfected PBMCs; assay: Viability of uninfected PBMCs; assay type: cell-based, human; conditions: 1 μM, 4 days

O=C1CCC(N2Cc3c(OCC(=O)N4CCC(c5nn(-c6nc7cc(Cl)ccc7[nH]6)c(O)c5CCc5ccc(F)cc5)CC4)cccc3C2=O)C(=O)N1 (centres unmarked) [FC-14367, 3-[4-(2-{4-[1-(5-chloro-1H-1,3-benzodiazol-2-yl)-4-[2-(4-fluorophenyl)ethyl]-5-hydroxy-1H-pyrazol-3-yl]piperidin-1-yl}-2-oxoethoxy)-1-oxo-2,3-dihydro-1H-isoindol-2-yl]piperidine-2,6-dione]
Kd [1]: < 1000 nM
Kd [2]: < 1000 nM

CN(CCNC(=O)COCCOc1ccc(CCc2c(-c3ccc(C(F)(F)F)cc3)nn(-c3nc4cc(Cl)ccc4[nH]3)c2O)cc1)c1cccc2c1C(=O)N(C1CCC(=O)NC1=O)C2=O (centres unmarked) [FC-13887, 2-[2-(4-{2-[1-(5-chloro-1H-1,3-benzodiazol-2-yl)-5-hydroxy-3-[4-(trifluoromethyl)phenyl]-1H-pyrazol-4-yl]ethyl}phenoxy)ethoxy]-N-(2-{[2-(2,6-dioxopiperidin-3-yl)-1,3-dioxo-2,3-dihydro-1H-isoindol-4-yl](methyl)amino}ethyl)acetamide]
induction of Nef ubiquitylation (in words) [3]: active
z-score of normalized BRET ratio (Nef ubiquitylation) [3]: 1.3
ternary complex formation (in words) [4]: induce ternary complexes of Nef with CRBN

O=C(COc1cccc2c1CN(C1CCC(=O)NC1=O)C2=O)NCCOCCOCCOCc1ccc(-c2nn(-c3nc4cc(Cl)ccc4[nH]3)c(O)c2CCc2ccc(F)cc2)cc1 (centres unmarked) [FC-12988, N-(2-{2-[2-({4-[1-(5-chloro-1H-1,3-benzodiazol-2-yl)-4-[2-(4-fluorophenyl)ethyl]-5-hydroxy-1H-pyrazol-3-yl]phenyl}methoxy)ethoxy]ethoxy}ethyl)-2-{[2-(2,6-dioxopiperidin-3-yl)-1-oxo-2,3-dihydro-1H-isoindol-4-yl]oxy}acetamide]
cell-surface CD4 rescue (in words) [5]: restored CD4 and MHC-I expression
cell-surface MHC-I rescue (in words) [6]: restored CD4 and MHC-I expression
Nef-eGFP protein loss / Nef degradation (in words) [7]: effectively induced Nef degradation
binding kinetics with Nef (in words) [8]: more rapid association and release compared to FC-13182
binding kinetics with CRBN thalidomide-binding domain (in words) [9]: associated more slowly than FC-13182 and showed a comparatively slow dissociation phase
ternary complex formation (in words) [4]: induce ternary complexes of Nef with CRBN

O=C(COc1ccc(CCc2c(-c3ccc(C(F)(F)F)cc3)nn(-c3nc4cc(Cl)ccc4[nH]3)c2O)cc1)NCCNc1cccc2c1C(=O)N(C1CCC(=O)NC1=O)C2=O (centres unmarked) [FC-14369, 2-(4-{2-[1-(5-chloro-1H-1,3-benzodiazol-2-yl)-5-hydroxy-3-[4-(trifluoromethyl)phenyl]-1H-pyrazol-4-yl]ethyl}phenoxy)-N-(2-{[2-(2,6-dioxopiperidin-3-yl)-1,3-dioxo-2,3-dihydro-1H-isoindol-4-yl]amino}ethyl)acetamide]
induction of Nef ubiquitylation (in words) [3]: active
Nef-eGFP protein loss / Nef degradation (in words) [7]: parallel loss in Nef expression
effect on the protein level of IKZF1 [10]: reduced the expression of IKZF1
Kd [8]: 6.5 nM
binding kinetics with Nef (in words) [8]: delayed dissociation
Kd [1]: < 1000 nM
Kd [2]: < 1000 nM
IC50 [11]: ~250 nM
cytotoxicity (in words) [12]: without cytotoxicity

O=C(COCCOCCOCCCc1ccc(-c2nn(-c3nc4cc(Cl)ccc4[nH]3)c(O)c2CCc2ccc(F)cc2)cc1)NCCNc1cccc2c1C(=O)N(C1CCC(=O)NC1=O)C2=O (centres unmarked) [FC-13818, 2-{2-[2-(3-{4-[1-(5-chloro-1H-1,3-benzodiazol-2-yl)-4-[2-(4-fluorophenyl)ethyl]-5-hydroxy-1H-pyrazol-3-yl]phenyl}propoxy)ethoxy]ethoxy}-N-(2-{[2-(2,6-dioxopiperidin-3-yl)-1,3-dioxo-2,3-dihydro-1H-isoindol-4-yl]amino}ethyl)acetamide]
ternary complex formation (in words) [4]: induce ternary complexes of Nef with CRBN
HIV-1 replication (in words) [13]: reduced HIV-1 replication below the level of the ΔNef mutant
reduction of viability [14]: 20%

O=C(COCCOc1ccc(CCc2c(-c3ccc(C(F)(F)F)cc3)nn(-c3nc4cc(Cl)ccc4[nH]3)c2O)cc1)NCCNc1cccc2c1C(=O)N(C1CCC(=O)NC1=O)C2=O (centres unmarked) [FC-13182, 2-[2-(4-{2-[1-(5-chloro-1H-1,3-benzodiazol-2-yl)-5-hydroxy-3-[4-(trifluoromethyl)phenyl]-1H-pyrazol-4-yl]ethyl}phenoxy)ethoxy]-N-(2-{[2-(2,6-dioxopiperidin-3-yl)-1,3-dioxo-2,3-dihydro-1H-isoindol-4-yl]amino}ethyl)acetamide]
cell-surface CD4 rescue (in words) [5]: restored CD4 and MHC-I expression
cell-surface MHC-I rescue (in words) [6]: restored CD4 and MHC-I expression
Nef-eGFP protein loss / Nef degradation (in words) [7]: effectively induced Nef degradation
